Experiments:
Assay type in all cases: in vivo
[1] = test system: redroot pigweed (Amaranthus retroflexus, AMR); assay: Pre-emerge test, redroot pigweed; conditions: 250 g ai/ha, 14 days after application, rating scale 0-100 (0 no damage, 100 complete death)
How it was run: (§1)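 Efficacy values are 0–100 phytotoxicity scores (0 no damage, 100 complete death) recorded 14 days post-application. Spray was delivered pre-emergence at 187 l/ha with rates of 8–1000 g ai/ha, using acetone as solvent.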

[2] = test system: velvetleaf (Abutilon theophrasti, ABT); assay: Pre-emerge test, velvetleaf; conditions: 250 g ai/ha, 14 days after application, rating scale 0-100 (0 no damage, 100 complete death)
How it was run: as §1

[3] = test system: sicklepod (Cassia obtusifolia, CAO); assay: Pre-emerge test, sicklepod; conditions: 250 g ai/ha, 14 days after application, rating scale 0-100 (0 no damage, 100 complete death)
How it was run: as §1

[4] = test system: ivyleaf morningglory (Ipomoea hederacea, IPH); assay: Pre-emerge test, ivyleaf morningglory; conditions: 250 g ai/ha, 14 days after application, rating scale 0-100 (0 no damage, 100 complete death)
How it was run: as §1

[5] = test system: lambsquarters (Chenopodium album, CHA); assay: Pre-emerge test, lambsquarters; conditions: 250 g ai/ha, 14 days after application, rating scale 0-100 (0 no damage, 100 complete death)
How it was run: as §1

[6] = test system: common ragweed (Ambrosia artemisiifolia L., AML); assay: Pre-emerge test, common ragweed; conditions: 250 g ai/ha, 14 days after application, rating scale 0-100 (0 no damage, 100 complete death)
How it was run: as §1

[7] = test system: cocklebur (Xanthium strumariunt, XAS); assay: Pre-emerge test, cocklebur; conditions: 250 g ai/ha, 14 days after application, rating scale 0-100 (0 no damage, 100 complete death)
How it was run: as §1

[8] = test system: green foxtail (Setaria viridis, SEV); assay: Pre-emerge test, green foxtail; conditions: 250 g ai/ha, 14 days after application, rating scale 0-100 (0 no damage, 100 complete death)
How it was run: as §1

[9] = test system: barnyardgrass (Echinachloa crus-galli, ECC); assay: Pre-emerge test, barnyardgrass; conditions: 250 g ai/ha, 14 days after application, rating scale 0-100 (0 no damage, 100 complete death)
How it was run: as §1

[10] = test system: johnsongrass (Sorghum halepense, SOH); assay: Pre-emerge test, johnsongrass; conditions: 250 g ai/ha, 14 days after application, rating scale 0-100 (0 no damage, 100 complete death)
How it was run: as §1

[11] = test system: large crabgrass (Digitaria sanguinalis, DIS); assay: Pre-emerge test, large crabgrass; conditions: 250 g ai/ha, 14 days after application, rating scale 0-100 (0 no damage, 100 complete death)
How it was run: as §1

[12] = test system: field corn (Zea mays L., var. Dekalb 535, CORN); assay: Pre-emerge test, crop damage field corn; conditions: pre-emerge, 250 g ai/ha, 14 days after application, rating scale 0-100 (0 no damage, 100 complete death)
How it was run: (§2)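 Read-out is a visual 0–100 phytotoxicity rating taken 14 days after treatment, where 100 means all plants dead. Compounds were applied pre-emergence in acetone by track sprayer at rates from 8 to 1000 g ai/ha onto pots sown the previous day.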

[13] = test system: soybean (Glycine max L., var. Pella 86, SOY); assay: Pre-emerge test, crop damage soybean; conditions: pre-emerge, 250 g ai/ha, 14 days after application, rating scale 0-100 (0 no damage, 100 complete death)
How it was run: as §2

[14] = test system: upland rice (Oryza sp., var.Tebonnet, RICE); assay: Pre-emerge test, crop damage upland rice; conditions: pre-emerge, 250 g ai/ha, 14 days after application, rating scale 0-100 (0 no damage, 100 complete death)
How it was run: as §2

[15] = test system: wheat (Triticum aestivum); assay: Pre-emerge test, crop damage wheat; conditions: pre-emerge, 250 g ai/ha, 14 days after application, rating scale 0-100 (0 no damage, 100 complete death)
How it was run: as §2

[16] = test system: redroot pigweed (Amaranthus retroflexus, AMR); assay: Post-emerge test, redroot pigweed; conditions: 250 g ai/ha, 14 days after application, rating scale 0-100 (0 no damage, 100 complete death)
How it was run: (§3)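 Greenhouse post-emergence spray onto plants at about the 2-3 leaf stage in sandy loam pots, compound in acetone at 187 l/ha plus 0.25% v/v non-ionic surfactant, 8-1000 g ai/ha by track sprayer. Phytotoxicity scored 14 days after application, 0 (no damage) to 100 (complete death).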

[17] = test system: velvetleaf (Abutilon theophrasti, ABT); assay: Post-emerge test, velvetleaf; conditions: 250 g ai/ha, 14 days after application, rating scale 0-100 (0 no damage, 100 complete death)
How it was run: as §3

[18] = test system: sicklepod (Cassia obtusifolia, CAO); assay: Post-emerge test, sicklepod; conditions: 250 g ai/ha, 14 days after application, rating scale 0-100 (0 no damage, 100 complete death)
How it was run: as §3

[19] = test system: ivyleaf morningglory (Ipomoea hederacea, IPH); assay: Post-emerge test, ivyleaf morningglory; conditions: 250 g ai/ha, 14 days after application, rating scale 0-100 (0 no damage, 100 complete death)
How it was run: as §3

[20] = test system: lambsquarters (Chenopodium album, CHA); assay: Post-emerge test, lambsquarters; conditions: 250 g ai/ha, 14 days after application, rating scale 0-100 (0 no damage, 100 complete death)
How it was run: as §3

[21] = test system: common ragweed (Ambrosia artemisiifolia L., AML); assay: Post-emerge test, common ragweed; conditions: 250 g ai/ha, 14 days after application, rating scale 0-100 (0 no damage, 100 complete death)
How it was run: as §3

[22] = test system: cocklebur (Xanthium strumariunt, XAS); assay: Post-emerge test, cocklebur; conditions: 250 g ai/ha, 14 days after application, rating scale 0-100 (0 no damage, 100 complete death)
How it was run: as §3

[23] = test system: green foxtail (Setaria viridis, SEV); assay: Post-emerge test, green foxtail; conditions: 250 g ai/ha, 14 days after application, rating scale 0-100 (0 no damage, 100 complete death)
How it was run: as §3

[24] = test system: barnyardgrass (Echinachloa crus-galli, ECC); assay: Post-emerge test, barnyardgrass; conditions: 250 g ai/ha, 14 days after application, rating scale 0-100 (0 no damage, 100 complete death)
How it was run: as §3

[25] = test system: johnsongrass (Sorghum halepense, SOH); assay: Post-emerge test, johnsongrass; conditions: 250 g ai/ha, 14 days after application, rating scale 0-100 (0 no damage, 100 complete death)
How it was run: as §3

[26] = test system: large crabgrass (Digitaria sanguinalis, DIS); assay: Post-emerge test, large crabgrass; conditions: 250 g ai/ha, 14 days after application, rating scale 0-100 (0 no damage, 100 complete death)
How it was run: as §3

[27] = test system: field corn (Zea mays L., var. Dekalb 535, CORN); assay: Post-emerge test, crop damage field corn; conditions: post-emerge, 250 g ai/ha, 14 days after application, rating scale 0-100 (0 no damage, 100 complete death)
How it was run: as §3

[28] = test system: soybean (Glycine max L., var. Pella 86, SOY); assay: Post-emerge test, crop damage soybean; conditions: post-emerge, 250 g ai/ha, 14 days after application, rating scale 0-100 (0 no damage, 100 complete death)
How it was run: as §3

[29] = test system: upland rice (Oryza sp., var.Tebonnet, RICE); assay: Post-emerge test, crop damage upland rice; conditions: post-emerge, 250 g ai/ha, 14 days after application, rating scale 0-100 (0 no damage, 100 complete death)
How it was run: as §3

[30] = test system: wheat (Triticum aestivum); assay: Post-emerge test, crop damage wheat; conditions: post-emerge, 250 g ai/ha, 14 days after application, rating scale 0-100 (0 no damage, 100 complete death)
How it was run: as §3

SMILES | Pre-emerge Herbicidal Activity AMR (phytotoxicity rating) [1] | Pre-emerge Herbicidal Activity ABT (phytotoxicity rating) [2] | Pre-emerge Herbicidal Activity CAO (phytotoxicity rating) [3] | Pre-emerge Herbicidal Activity IPH (phytotoxicity rating) [4] | Pre-emerge Herbicidal Activity CHA (phytotoxicity rating) [5] | Pre-emerge Herbicidal Activity AML (phytotoxicity rating) [6] | Pre-emerge Herbicidal Activity XAS (phytotoxicity rating) [7] | Pre-emerge Herbicidal Activity SEV (phytotoxicity rating) [8] | Pre-emerge Herbicidal Activity ECC (phytotoxicity rating) [9] | Pre-emerge Herbicidal Activity SOH (phytotoxicity rating) [10] | Pre-emerge Herbicidal Activity DIS (phytotoxicity rating) [11] | Pre-emerge crop damage CORN (phytotoxicity rating) [12] | Pre-emerge crop damage SOY (phytotoxicity rating) [13] | Pre-emerge crop damage RICE (phytotoxicity rating) [14] | Pre-emerge crop damage WHEAT (phytotoxicity rating) [15] | Post-emerge Herbicidal Activity AMR (phytotoxicity rating) [16] | Post-emerge Herbicidal Activity ABT (phytotoxicity rating) [17] | Post-emerge Herbicidal Activity CAO (phytotoxicity rating) [18] | Post-emerge Herbicidal Activity IPH (phytotoxicity rating) [19] | Post-emerge Herbicidal Activity CHA (phytotoxicity rating) [20] | also measured
CC1C(=O)Nc2c(-c3nn(C)c(OC(F)F)c3Cl)c(F)cc3c2N1C(=O)C(C)(C)O3 (stereo not drawn) [1-60] | 100 | 100 | 98 | 100 | 100 | 80 | 85 | 100 | 100 | 100 | 100 | 80 | 40 | 70 | 50 | 85 | 100 | 60 | 100 | 100 | Post-emerge Herbicidal Activity AML (phytotoxicity rating) [21]: 70; Post-emerge Herbicidal Activity XAS (phytotoxicity rating) [22]: 85; Post-emerge Herbicidal Activity SEV (phytotoxicity rating) [23]: 95; Post-emerge Herbicidal Activity ECC (phytotoxicity rating) [24]: 98; Post-emerge Herbicidal Activity SOH (phytotoxicity rating) [25]: 0; Post-emerge Herbicidal Activity DIS (phytotoxicity rating) [26]: 0; Post-emerge crop damage CORN (phytotoxicity rating) [27]: 5; Post-emerge crop damage SOY (phytotoxicity rating) [28]: 50; Post-emerge crop damage RICE (phytotoxicity rating) [29]: 0; Post-emerge crop damage WHEAT (phytotoxicity rating) [30]: 30
CCC1C(=O)Nc2c(-c3nn(C)c(OC(F)F)c3Cl)c(F)cc3c2N1C(=O)C(C)(C)O3 (stereo not drawn) [1-61] | 100 | 100 | 65 | 98 | 100 | 80 | 60 | 100 | 99 | 100 | 98 | 0 | 25 | 10 | 15 | 75 | 98 | 30 | 100 | 99 | Post-emerge Herbicidal Activity AML (phytotoxicity rating) [21]: 60; Post-emerge Herbicidal Activity XAS (phytotoxicity rating) [22]: 90; Post-emerge Herbicidal Activity SEV (phytotoxicity rating) [23]: 85; Post-emerge Herbicidal Activity ECC (phytotoxicity rating) [24]: 35; Post-emerge Herbicidal Activity SOH (phytotoxicity rating) [25]: 20; Post-emerge Herbicidal Activity DIS (phytotoxicity rating) [26]: 0; Post-emerge crop damage CORN (phytotoxicity rating) [27]: 3; Post-emerge crop damage SOY (phytotoxicity rating) [28]: 25; Post-emerge crop damage RICE (phytotoxicity rating) [29]: 30; Post-emerge crop damage WHEAT (phytotoxicity rating) [30]: 30
CC1C(=O)N(C)c2c(-c3nn(C)c(OC(F)F)c3Cl)c(F)cc3c2N1C(=O)CO3 (stereo not drawn) [1-62] | 65 | 90 | 50 | 60 | 100 | 35 | 25 | 100 | 90 | 90 | 50 | 10 | 10 | 50 | 45 | 99 | 80 | 35 | 75 | 100 | Post-emerge Herbicidal Activity AML (phytotoxicity rating) [21]: 90; Post-emerge Herbicidal Activity XAS (phytotoxicity rating) [22]: 65; Post-emerge Herbicidal Activity SEV (phytotoxicity rating) [23]: 60; Post-emerge Herbicidal Activity ECC (phytotoxicity rating) [24]: 30; Post-emerge Herbicidal Activity SOH (phytotoxicity rating) [25]: 0; Post-emerge Herbicidal Activity DIS (phytotoxicity rating) [26]: 30; Post-emerge crop damage CORN (phytotoxicity rating) [27]: 0; Post-emerge crop damage SOY (phytotoxicity rating) [28]: 0; Post-emerge crop damage RICE (phytotoxicity rating) [29]: 70; Post-emerge crop damage WHEAT (phytotoxicity rating) [30]: 50

Source: patent US6770596B1, “Fused tricyclic compounds, process for their preparation, and herbicidal compositions containing them” (Ishihara Sangyo Kaisha Ltd., priority 2002, dated 2004)
